Key:
Assay type in all cases: cell-based
[1] = system: Wnt signalling pathway; assay: Wnt-sensitive reporter gene assay (6xTCF-luciferase, pTOP-FLASH) in Hek293T cells; parameters: Normalized Wnt pathway (inhibitory) activity: scale not given here; conditions: for IC50: Homo sapiens, HEK-293T, Hek293T, 24 h incubation, 5 nM-100 microM, read-out: IC50 of the Wnt signalling pathway inhibiting activity
Description: To screen for small-molecule modulators of the Wnt signalling pathway, a reporter gene based assay describing the modulation of the TCF4 transcription factor was used. More specifically 4000 Hek293T cells were seeded into 384 high density plates. 24 h after seeding a Wnt-sensitive reporter (6×TCF-luciferase (Firefly) (pTOP-FLASH; “Armadillo co activates transcription driven by the product of the drosophila segment polarity gene dTCF”, Cell, 1997, 88(6), pages 789-799) and constitutively expressed control reporter (Renilla luciferase pCMV-RL) were transfected into Hek293T. Wnt signaling was stimulated by cotransfecting mouse Wnt1, mouse Frizzled 8 and human LRP6 according to “Casein kinase 1 gamma couples Wnt receptor activation to cytoplasmic signal transduction”, Nature, 2005, 438 (7069), pages 867-872. 24 h after pathway stimulation compounds were added at a concentration of 10 microM and allowed to incubate for 24 h. For the evaluation of the IC50 the compound was applied in increasing concentrations yielding final concentrations per well of 5 nM-100 microM.

[2] = system: Hek293T; assay: Cytotoxicity in Hek293T, CellTiterGlo; conditions: 24 h
Description: (§1) For examination of cytotoxicity in these cancer cell lines the commercial available CellTiterGlo® Reagent (Promega, USA) was used according to the manufactor. Compounds were applied to Hek293T (denoted (1)) or HepG2 (denoted (2)), cultured in Dulbecco's Modified Eagles Medium, supplemented with 10% fetal calf serum and 1% penicillin/streptomycin. Cells were grown in T75 flasks at 37° C., 5% CO2 and trypsinized when 60-80% confluent by adding 2 ml of 0.25% Trypsin-EDTA solution. Cells were then re-suspended into culture medium yielding approx. 4000 cells (1) or 4500 cells (2), suspended in 30 microl medium. 48 h after cell seeding, compounds were added to yield the desired final concentrations. 24 h after compound addition cytotoxicity was evaluated. For this purpose the media was removed and CellTiterGlo® was added according to the manufactors manual. In this assay the luciferase emission readout is directly correlated with the cellular amount of ATP, low luciferase emission thus is reflecting cytotoxicity of a compound. For the evaluation of the IC50 the compound was applied in increasing concentrations yielding final concentrations per well of 5 nM-100 microM.

[3] = system: HepG2; assay: Cytotoxicity in HepG2, CellTiterGlo; conditions: 24 h
Description: as §1

[4] = system: human colon carcinoma cells HCT116; assay: Antiproliferative activity against HCT116, cell count
Description: For examination of cell line-specific cytotoxicity, compounds were applied to human colorectal cancer cells (HCT116, denoted (1); SW480, denoted (2); Dld-1, denoted (3)) and human fibroblasts (HFF-1, denoted (4); HS-68, denoted (5)), cultured in Mc Coy's (1) and Dulbecco's Modified Eagles Medium (2-5), supplemented with 10% ((1)-(3)) and 20% ((4), (5)) fetal calf serum and 1% penicillin/streptomycin. Cells were grown in T75 flasks at 37° C., 5% CO2 and trypsinized when 60-80% confluent by adding 2 ml of 0.25% Trypsin-EDTA solution. Cells were then re-suspended into culture medium and approx. 750 cells, suspended in 45 microl medium, were plated into each well of a black 384-well plate for fluorescence imaging experiments. 24-36 hr later 5 microl compound solution (100 microM compound dissolved in ultra pure water containing 1% DMSO), were added to achieve a final concentration of 10 microM and were incubated for at least 72 hr. Compound incubation was terminated by (a) fixation and (b) permeabilisation of cells, followed by (c) fluorescence labeling of cell nuclei for cytometric quantification or by immunocytochemistry for microscopic evaluation of cell morphology. The three steps were performed by replacing the solution of the previous step in each well of a 384-well plate by (a) 30 microl PBS (phosphate buffered saline) containing 5% PFA (paraformaldehyde), (b) 30 microl PBS containing 0.2% TritonX-100 and (c) 10 microl PBS containing Hoechst-33342 for cytometry or Hoechst-33342, FITC (fluorescein isothiocyanate-) labeled α-tubulin antibodies and TRITC-(tetramethylrhodamine isothiocyanate-) labeled phalloidin antibodies for microscopy. Solutions were incubated for 15 (a,b) and 30 min (c) in the dark at room temperature. Cells were washed twice between each step with 30 microl PBS. The assay system was miniaturized and adapted to automated workflow using liquid-handling robotics.
Cell line-specific cytotoxicity was quantified by counting the number of Hoechst labeled nuclei per well of a 384-well plate using a plate cytometer. Data obtained with the cytometer was analysed using standard data analysis software.
The examination of the antiproliferative activity against human colon carcinoma cells HCT116 was carried out in analogy to example 35. […] Compounds of the present invention have potent antiproliferative activity against human colon carcinoma cells as shown for HCT116 in Table 6.

CCOC(=O)C1=C(c2ccccc2)c2c(n(-c3ccccc3)c(=O)n3c(-c4ccc(OC)cc4)nnc23)NC1C (stereo not shown) [Example 18]
Normalized Wnt pathway (inhibitory) activity ([1]; 0.005 microM): 0.8680 | Normalized Wnt pathway (inhibitory) activity ([1]; 0.015 microM): 1.1175 | Normalized Wnt pathway (inhibitory) activity ([1]; 0.046 microM): 1.0168 | Normalized Wnt pathway (inhibitory) activity ([1]; 0.137 microM): 1.0825 | Normalized Wnt pathway (inhibitory) activity ([1]; 0.412 microM): 1.1223 | Normalized Wnt pathway (inhibitory) activity ([1]; 1.235 microM): 0.7260 | Normalized Wnt pathway (inhibitory) activity ([1]; 3.704 microM): 0.8798 | Normalized Wnt pathway (inhibitory) activity ([1]; 11.111 microM): 0.6365 | Normalized Wnt pathway (inhibitory) activity ([1]; 33.333 microM): 0.4930 | Normalized Wnt pathway (inhibitory) activity ([1]; 100.000 microM): 0.2505 | IC50 [1]: 22.1 µM | Normalized toxicity values (Hek293T) ([2]; 0.005 microM): 1.1075 | Normalized toxicity values (Hek293T) ([2]; 0.015 microM): 1.0110 | Normalized toxicity values (Hek293T) ([2]; 0.046 microM): 1.0523 | Normalized toxicity values (Hek293T) ([2]; 0.137 microM): 1.0088 | Normalized toxicity values (Hek293T) ([2]; 0.412 microM): 1.0313 | Normalized toxicity values (Hek293T) ([2]; 1.235 microM): 1.0733 | Normalized toxicity values (Hek293T) ([2]; 3.704 microM): 1.1200 | Normalized toxicity values (Hek293T) ([2]; 11.111 microM): 1.0825 | Normalized toxicity values (Hek293T) ([2]; 33.333 microM): 1.1175 | Normalized toxicity values (Hek293T) ([2]; 100.000 microM): 0.9883 | Normalized toxicity values (HepG2) ([3]; 0.005 microM): 1.1400 | Normalized toxicity values (HepG2) ([3]; 0.015 microM): 1.0110 | Normalized toxicity values (HepG2) ([3]; 0.046 microM): 1.0350 | Normalized toxicity values (HepG2) ([3]; 0.137 microM): 0.9173 | Normalized toxicity values (HepG2) ([3]; 0.412 microM): 0.9185 | Normalized toxicity values (HepG2) ([3]; 1.235 microM): 0.9953 | Normalized toxicity values (HepG2) ([3]; 3.704 microM): 0.9855 | Normalized toxicity values (HepG2) ([3]; 11.111 microM): 1.0800 | Normalized toxicity values (HepG2) ([3]; 33.333 microM): 1.1125 | Normalized toxicity values (HepG2) ([3]; 100.000 microM): 1.1375 | Normalized cell count (HCT 116) ([4]; 0.005 microM): 1 | Normalized cell count (HCT 116) ([4]; 0.015 microM): 0.9377 | Normalized cell count (HCT 116) ([4]; 0.046 microM): 0.9859 | Normalized cell count (HCT 116) ([4]; 0.137 microM): 0.8603 | Normalized cell count (HCT 116) ([4]; 0.412 microM): 0.9166 | Normalized cell count (HCT 116) ([4]; 1.235 microM): 0.8399 | Normalized cell count (HCT 116) ([4]; 3.704 microM): 0.4154 | Normalized cell count (HCT 116) ([4]; 11.111 microM): 0.1595 | Normalized cell count (HCT 116) ([4]; 33.333 microM): 0.1555 | Normalized cell count (HCT 116) ([4]; 100.000 microM): 0.1892

CCOC(=O)C1=C(c2ccccc2)c2c(n(-c3ccccc3)c(=O)n3c(-c4cccc(OC)c4)nnc23)NC1C (stereo not shown) [Example 16, 3-(3-Methoxy-phenyl)-7-methyl-4-oxo-5,9-diphenyl-4,5,6,7-tetrahydro-1,2,3a,5,6-pentaaza-cyclopenta[a]naphthalene-8-carboxylic acid ethyl ester]
Normalized Wnt pathway (inhibitory) activity ([1]; 0.005 microM): 0.9907 | Normalized Wnt pathway (inhibitory) activity ([1]; 0.015 microM): 1.2275 | Normalized Wnt pathway (inhibitory) activity ([1]; 0.046 microM): 1.0533 | Normalized Wnt pathway (inhibitory) activity ([1]; 0.137 microM): 1.0070 | Normalized Wnt pathway (inhibitory) activity ([1]; 0.412 microM): 1.0435 | Normalized Wnt pathway (inhibitory) activity ([1]; 1.235 microM): 0.9565 | Normalized Wnt pathway (inhibitory) activity ([1]; 3.704 microM): 0.5445 | Normalized Wnt pathway (inhibitory) activity ([1]; 11.111 microM): 0.3755 | Normalized Wnt pathway (inhibitory) activity ([1]; 33.333 microM): 0.3063 | Normalized Wnt pathway (inhibitory) activity ([1]; 100.000 microM): 0.1990 | IC50 [1]: 2.94 µM | Normalized toxicity values (Hek293T) ([2]; 0.005 microM): 1.0215 | Normalized toxicity values (Hek293T) ([2]; 0.015 microM): 0.8660 | Normalized toxicity values (Hek293T) ([2]; 0.046 microM): 0.8370 | Normalized toxicity values (Hek293T) ([2]; 0.137 microM): 0.8375 | Normalized toxicity values (Hek293T) ([2]; 0.412 microM): 0.8593 | Normalized toxicity values (Hek293T) ([2]; 1.235 microM): 0.8530 | Normalized toxicity values (Hek293T) ([2]; 3.704 microM): 0.8778 | Normalized toxicity values (Hek293T) ([2]; 11.111 microM): 0.9213 | Normalized toxicity values (Hek293T) ([2]; 33.333 microM): 0.9450 | Normalized toxicity values (Hek293T) ([2]; 100.000 microM): 0.9233 | Normalized toxicity values (HepG2) ([3]; 0.005 microM): 1.0275 | Normalized toxicity values (HepG2) ([3]; 0.015 microM): 0.9130 | Normalized toxicity values (HepG2) ([3]; 0.046 microM): 0.9210 | Normalized toxicity values (HepG2) ([3]; 0.137 microM): 0.9210 | Normalized toxicity values (HepG2) ([3]; 0.412 microM): 0.9183 | Normalized toxicity values (HepG2) ([3]; 1.235 microM): 0.9173 | Normalized toxicity values (HepG2) ([3]; 3.704 microM): 1.0303 | Normalized toxicity values (HepG2) ([3]; 11.111 microM): 1.1325 | Normalized toxicity values (HepG2) ([3]; 33.333 microM): 1.2425 | Normalized toxicity values (HepG2) ([3]; 100.000 microM): 1.1200 | Normalized cell count (HCT 116) ([4]; 0.005 microM): 1 | Normalized cell count (HCT 116) ([4]; 0.015 microM): 1.063 | Normalized cell count (HCT 116) ([4]; 0.046 microM): 1.163 | Normalized cell count (HCT 116) ([4]; 0.137 microM): 1.06 | Normalized cell count (HCT 116) ([4]; 0.412 microM): 1.067 | Normalized cell count (HCT 116) ([4]; 1.235 microM): 1.125 | Normalized cell count (HCT 116) ([4]; 3.704 microM): 1.2 | Normalized cell count (HCT 116) ([4]; 11.111 microM): 1.231 | Normalized cell count (HCT 116) ([4]; 33.333 microM): 0.52 | Normalized cell count (HCT 116) ([4]; 100.000 microM): 0.5801

From patent US8629272B2, “Tricyclic pyrimidine derivatives as wnt antagonists” (Deutsches Krebsforschungszentrum, priority 2009, dated 2014)
